Test results taken from patent US20090042993A1, “IDENTIFICATION OF NOVEL POST-TRANSLATIONAL PROTEIN MODIFICATIONS” (priority 2007, published 2009).

Legend:
[1] = tested on: lysine deacetylase activity in Golgi vesicles; test: Membrane deacetylase activity, in vitro deacetylation of acetylated BACE1-myc by Golgi vesicles; type: biochemical, Chinese Hamster; settings: vesicles from ceramide-treated cells, 0.2% Triton X-100, 30° C.
Source text: Intact vesicles from the endoplasmic reticulum (ER) and the Golgi apparatus were purified on a 10-34% Iodixanol (OptiPrep; Axis-Shield, Norway) continuous gradient as described (Puglielli et al., 2001, Nat. Cell Biol. 3: 905-912). The complete migration of subcellular markers in a typical gradient is shown in Costantini et al., 2006, EMBO J. 25: 1997-2006; Puglielli et al., 2001, Nat. Cell Biol. 3: 905-912. Fractions enriched in ER and Golgi markers (also called ER or Golgi vesicles herein) were separated, pooled together, and resuspended in isotonic/cryogenic buffer (0.25 M sucrose and 10 mM Tris-HCl, pH 7.4) in the presence of protease inhibitors (Roche). Latency of ER and Golgi vesicles was determined with the glucose-6-phosphatase (Clairmont et al., 1992, J. Biol. Chem. 267: 3983-3900) and the sialyl-transferase (Puglielli and Hirschberg, 1999, J. Biol. Chem. 274: 35596-35600) methods, respectively. […]
BACE1 was eluted by lowering the pH to 2.0 and recovered by centrifuging at 3000 rpm for 2 min. […] BACE1 was then immunoprecipitated and counted on a liquid scintillation counter. […]
FIG. 6 illustrates how acetyltransferase and deacetylase activities exist in the lumen of ER and Golgi apparatus, respectively. […] The reaction was stopped by lowering the temperature; BACE1 was then purified again and analyzed on a scintillation liquid counter. […]

AT-1 = AT-1 mRNA by real-time quantitative PCR in SH-SY5Y cells; type: cell-based, human; settings: C6-cer 10 μM
Description: FIG. 15(A): SH-SY5Y cells were treated with ceramide (C6-cer; 10 μM) prior to real-time quantitative PCR. Treatment was performed as previously described (Costantini et al., 2007; Costantini et al., 2005; Puglielli et al., 2003). Results are expressed as percent of control (n=5)±S.D. of control (no treatment). Asterisk (*) indicates statistical significance. […] FIG. 15(B): a cDNA library (frontal cortex) of late-onset AD (n=5 different subjects) and age-matched controls (n=5 different subjects) was analyzed by quantitative real-time PCR. Results are expressed as percent of age-matched controls±S.D. Asterisk (*) indicates statistical significance.

CCCCCCCCCCCCC/C=C/[C@@H](O)[C@H](CO)NC(=O)CCCCC [ceramide, C6-ceramide]
in vitro deacetylation of BACE1 by Golgi vesicles [1]: increased deacetylation
AT-1 mRNA level (AT-1): upregulated
